Results: US20170295788A1, “USE OF HETEROCYCLIC FLUOROALKENYL SULFONE COMPOUNDS FOR REPELLING MOLLUSCS” (Adama Makhteshim Ltd., priority 2014, published 2017)

Tested on: Deroceras reticulatum
Test: Split box trial: slug damage to lettuce seedlings / slug repellency
Type: in vivo
Description: A split box trial was conducted using Deroceras reticulatum as the slug species and lettuce seedling as the food source. There were 5 split treatments with each treatment replicated four times using a simple randomized block design. Each plot was a single enclosed cage of dimensions 0.6 m×0.4 m. Each cage was of opaque plastic construction with rigid sides and a removable fine muslin top to prevent escape of the slugs. The cages were each filled with natural loam soil to a depth of approximately 7 cm, which was consolidated to prevent slug escape. Half of each box was covered with a polythene sheet before spraying to prevent the spray from reaching the soil on half of the box. […] Following the application of fluensulfone 250 CS, one treatment was incorporated into the soil by mixing the top 2 cm of the soil. The other applications had no soil incorporation. Lettuce plants were planted into the soil either seven or two days after spraying. At these intervals after spraying, six lettuce plants were planted into each cage, three in the treated side and three in the untreated side. After transplanting the lettuce plants, eight adult slugs were introduced into the centre of each cage. The soil was kept damp for the duration of the trials. [table] All sprayed treatments applied in 200 l/ha water. Assessments were carried out after the introduction of the slugs. Severity of leaf damage was assessed using a % scale where 0=no damage and 100=total loss of plant foliage. Incidence of plant damage was assessed by counting the actual number of plants showing damage.

O=S(=O)(CCC(F)=C(F)F)c1ncc(Cl)s1 [fluensulfone]
numbers of damaged lettuce plants (all fluensulfone treated boxes, compared to the untreated box): reduced compared to the untreated box
amount of damage caused to the lettuce plants (damage severity) (treated boxes compared to the untreated box): reduced
effect on live slugs (repellency) (treated boxes, slugs avoided the sprayed side and migrated to the untreated side): repellent effect
